The assay concerns adjuvant-induced arthritis in rats. Description: Established Adjuvant-Induced Arthritis in Rats (paw volume). Particulars: oral gavage, 7 daily doses; for ED50: Rattus norvegicus, uninjected left hind paw, established adjuvant arthritis, read-out: Adjuvant Arthritis ED50 (ED50% decrease from control paw volume). In kind it is in vivo, rat (Charles River Lewis male rats). As for the experimental part:
A procedure for detecting and comparing the antiinflammatory activity of compounds in this series and standard drugs for which there is a good correlation with human efficacy is the adjuvant-induced arthritis test in rats.
The test procedure employed for determining antiinflammatory activity is described below.
Established Adjuvant-Induced Arthritis in Rats
Charles River Lewis male rats (130-150 grams) are injected subcutaneously in plantar area of the right hind paw with 0.1 ml of adjuvant (Difco heat-killed, lyophilized Mycobacterium butyricum suspended in mineral oil 5 mg/ml). 20 Non-arthritic controls are injected with mineral oil. The animals are held for 2 weeks to allow development of arthritis. Paw volumes (uninjected, left hind paw) are measured and the adjuvant injected rats are culled and distributed to treatment groups of 10 of equal disease severity. Non-arthritic controls are distributed to 2 groups of 10. The rats are given oral doses of compound or PVA-Acacia (Polyvinyl Alcohol 1%, Gum Acacia, U.S.P. 5%, Methylparaben 0.5%) (10 ml/kg) by gavage on that day and on the 6 following days. One day after the last dose the paw volumes (uninjected, left hind paw) are measured using a Ugo Basile Volume Differential Meter Model 7101. [formula]
% Decrease from Control Mean Paw Volume.
Dose-response regression lines of the % decrease are plotted on semi-log paper by visual fit and the ED50% decrease from control paw volume is determined by inspection.

From patent US4318917A, “Antiinflammatory 2,3-diaryl-5-[2,2,2-trifluoro-1-(trifluoromethyl]ethyl-1H-pyrroles” (E. I. Du Pont de Nemours and Company, priority 1981, dated 1982) come the findings set out here.

For orientation: ED50 means the dose at which the effect has come halfway, by size or by number of responders. `FC(F)(F)C(c1cc(-c2ccccc2)c(-c2ccccc2)[nH]1)C(F)(F)F` [Example 1, 2,3-Diphenyl-5-[2,2,2-trifluoro-1-(trifluoromethyl)-ethyl]-1H-pyrrole]: the ED50 was found to be 11 mg/kg.
Same read-out and setting: next, `Fc1ccc(-c2cc(C(C(F)(F)F)C(F)(F)F)[nH]c2-c2ccc(F)cc2)cc1` [Example 2, 2,3-Bis(4-fluorophenyl)-5-[2,2,2-trifluoro-1-(trifluoromethyl)ethyl]-1H-pyrrole]: 4 mg/kg; `FC(F)(F)C(c1cc(-c2ccc(Cl)cc2)c(-c2ccc(Cl)cc2)[nH]1)C(F)(F)F` [Example 3]: 15 mg/kg; `Fc1ccc(-c2cc(C(C(F)(F)F)C(F)(F)F)[nH]c2-c2ccc(Br)cc2)cc1` [Example 4]: 3.9 mg/kg.
With `Fc1ccc(-c2cc(C(C(F)(F)F)C(F)(F)F)[nH]c2-c2cccnc2)cc1` [Example 5], the “percent reduction in paw volume at the indicated dose” value (at 5 mg/kg) was 0%.
As for `CSc1ccc(-c2[nH]c(C(C(F)(F)F)C(F)(F)F)cc2-c2ccc(F)cc2)cc1` [Example 6], the median effective dose (ED50) was 2.5 mg/kg.
On the same count and under the same terms, next, `Fc1ccc(C2=CC(=C(C(F)(F)F)C(F)(F)F)N=C2c2ccc(F)cc2)cc1` [Example 17, 4,5-Bis(4-fluorophenyl)-2-[2,2,2-trifluoro-1-(trifluoromethyl)ethylidene]-2H-pyrrole]: 33 mg/kg.
For the compound `Fc1ccc(C2=CC(=C(C(F)(F)F)C(F)(F)F)N=C2c2ccc(Br)cc2)cc1` [Example 18, 5-(4-bromophenyl)-4-(4-fluorophenyl)-2-[2,2,2-trifluoro-1-(trifluoromethyl)ethylidene]-2H-pyrrole], where the note is “at 25 mg/kg”, the “percent reduction in paw volume at the indicated dose” value is 16%.
